Laboratory results reported in ChEMBL document CHEMBL1130231, “Betidamino acid scan of the GnRH antagonist acyline” (J Med Chem, 1997).
Calls of active or inactive are those of the source. The calls are words filed in the database; no cut-off is given here.

Assays:
Type in all cases: functional, organism-based
Rattus norvegicus [1] = experiment: Ratio of ovulated rats to total number of rats determined in a anti-ovulatory assay by administering 1 microg of compound; 5/8
Rattus norvegicus [2] = experiment: Ratio of ovulated rats to total number of rats determined in a anti-ovulatory assay by administering 2.5 microg of compound; 0/8
Rattus norvegicus [3] = experiment: Ratio of ovulated rats to total number of rats determined in a anti-ovulatory assay by administering 250 microg of compound; 6/8
Rattus norvegicus [4] = experiment: Ratio of ovulated rats to total number of rats determined in a anti-ovulatory assay by administering 2.5 microg of compound; 0/4
Rattus norvegicus [5] = experiment: Ratio of ovulated rats to total number of rats determined in a anti-ovulatory assay by administering 1 microg of compound; 3/3
Rattus norvegicus [6] = experiment: Ratio of ovulated rats to total number of rats determined in a anti-ovulatory assay by administering 5 microg of compound; 2/8
Rattus norvegicus [7] = experiment: Ratio of ovulated rats to total number of rats determined in a anti-ovulatory assay by administering 1 microg of compound; 8/8
Rattus norvegicus [8] = experiment: Ratio of ovulated rats to total number of rats determined in a anti-ovulatory assay by administering 1 ug of compound; 2/8
Rattus norvegicus [9] = experiment: Ratio of ovulated rats to total number of rats determined in a anti-ovulatory assay by administering 2.5 microg of compound; 2/8
Rattus norvegicus [10] = experiment: Ratio of ovulated rats to total number of rats determined in a anti-ovulatory assay by administering 5 microg of compound; 1/8
Rattus norvegicus [11] = experiment: Ratio of ovulated rats to total number of rats determined in a anti-ovulatory assay by administering 10 microg of compound; 0/8
Rattus norvegicus [12] = experiment: Ratio of ovulated rats to total number of rats determined in a anti-ovulatory assay by administering 5 microg of compound; 5/8
Rattus norvegicus [13] = experiment: Ratio of ovulated rats to total number of rats determined in a anti-ovulatory assay by administering 25 microg of compound; 0/8
Rattus norvegicus [14] = experiment: Ratio of ovulated rats to total number of rats determined in a anti-ovulatory assay by administering 10 microg of compound; 7/8
Rattus norvegicus [15] = experiment: Ratio of ovulated rats to total number of rats determined in a anti-ovulatory assay by administering 10 microg of compound; 8/8
Rattus norvegicus [16] = experiment: Ratio of ovulated rats to total number of rats determined in a anti-ovulatory assay by administering 25 microg of compound; 4/8
Rattus norvegicus [17] = experiment: Ratio of ovulated rats to total number of rats determined in a anti-ovulatory assay by administering 10 microg of compound; 1/8
Rattus norvegicus [18] = experiment: Ratio of ovulated rats to total number of rats determined in a anti-ovulatory assay by administering 2.5 microg of compound; 8/8

Question: For `CC(=O)Nc1ccc(C[C@@H](NC(=O)[C@H](NC(=O)[C@H](CO)NC(=O)[C@@H](Cc2cccnc2)NC(=O)[C@@H](Cc2ccc(Cl)cc2)NC(=O)[C@@H](Cc2ccc3ccccc3c2)NC(C)=O)N(C)C(=O)c2ccc(NC(C)=O)cc2)C(=O)N[C@@H](CC(C)C)C(=O)N[C@@H](CCCCNC(C)C)C(=O)N2CCC[C@@H]2C(=O)N[C@H](C)C(N)=O)cc1`, which ov. rat/total (Rattus norvegicus [1]) is on record?
Answer: Partially active

Question: And the ov. rat/total (Rattus norvegicus [2])?
Answer: Active

Question: How did the ov. rat/total (Rattus norvegicus [3]) turn out when `CC(=O)Nc1ccc(C[C@H](NC(=O)[C@H](CO)NC(=O)[C@@H](Cc2cccnc2)NC(=O)[C@H](NC(=O)c2c[nH]nc2N)NC(=O)[C@@H](Cc2ccc3ccccc3c2)NC(C)=O)C(=O)N[C@H](Cc2ccc(NC(C)=O)cc2)C(=O)N[C@@H](CC(C)C)C(=O)N[C@@H](CCCCNC(C)C)C(=O)N2CCC[C@@H]2C(=O)N[C@H](C)C(N)=O)cc1` was run?
Answer: inactive

Question: For `CC(=O)Nc1ccc(C[C@H](NC(=O)[C@H](CO)NC(=O)[C@@H](Cc2cccnc2)NC(=O)[C@@H](Cc2ccc(Cl)cc2)NC(=O)[C@@H](Cc2ccc3ccccc3c2)NC(C)=O)C(=O)N[C@H](Cc2ccc(NC(C)=O)cc2)C(=O)N[C@@H](CC(C)C)C(=O)N[C@@H](CCCCNC(C)C)C(=O)N2CCC[C@@H]2C(=O)N[C@@H](NC=O)C(N)=O)cc1` (single isomer, unassigned), which ov. rat/total (Rattus norvegicus [4]) is on record?
Answer: Active

Question: And the ov. rat/total (Rattus norvegicus [5])?
Answer: inactive

Question: Which ov. rat/total (Rattus norvegicus [6]) does the source give for `CC(=O)Nc1ccc(C[C@@H](NC(=O)[C@@H](NC(=O)c2ccc(NC(C)=O)cc2)NC(=O)[C@H](CO)NC(=O)[C@@H](Cc2cccnc2)NC(=O)[C@@H](Cc2ccc(Cl)cc2)NC(=O)[C@@H](Cc2ccc3ccccc3c2)NC(C)=O)C(=O)N[C@@H](CC(C)C)C(=O)N[C@@H](CCCCNC(C)C)C(=O)N2CCC[C@@H]2C(=O)N[C@H](C)C(N)=O)cc1` here?
Answer: Partially active

Question: Which results are given for `CC(=O)Nc1ccc(C[C@H](NC(=O)[C@H](CO)NC(=O)[C@@H](Cc2cccnc2)NC(=O)[C@@H](Cc2ccc(Cl)cc2)NC(=O)[C@@H](Cc2ccc3ccccc3c2)NC(C)=O)C(=O)N[C@H](Cc2ccc(NC(C)=O)cc2)C(=O)N[C@@H](CC(C)C)C(=O)N[C@@H](CCCCNC(C)C)C(=O)N2CCC[C@@H]2C(=O)N[C@@H](C)C(N)=O)cc1`?
Answer: ov. rat/total (Rattus norvegicus [7]): inactive; ov. rat/total (Rattus norvegicus [2]): Active

Question: Which results are given for `CC(=O)Nc1ccc(C[C@@H](NC(=O)[C@H](NC(=O)c2ccc(O)cc2)NC(=O)[C@H](CO)NC(=O)[C@@H](Cc2cccnc2)NC(=O)[C@@H](Cc2ccc(Cl)cc2)NC(=O)[C@@H](Cc2ccc3ccccc3c2)NC(C)=O)C(=O)N[C@@H](CC(C)C)C(=O)N[C@@H](CCCCNC(C)C)C(=O)N2CCC[C@@H]2C(=O)N[C@H](C)C(N)=O)cc1`?
Answer: ov. rat/total (Rattus norvegicus [1]): Partially active; ov. rat/total (Rattus norvegicus [2]): Active

Question: `CC(=O)Nc1ccc(C[C@H](NC(=O)[C@H](CO)NC(=O)[C@@H](Cc2cccnc2)NC(=O)[C@@H](Cc2ccc(Cl)cc2)NC(=O)[C@@H](NC(C)=O)N(C)C(=O)c2ccc3ccccc3c2)C(=O)N[C@H](Cc2ccc(NC(C)=O)cc2)C(=O)N[C@@H](CC(C)C)C(=O)N[C@@H](CCCCNC(C)C)C(=O)N2CCC[C@@H]2C(=O)N[C@H](C)C(N)=O)cc1` (single isomer, unassigned) was tested. Which ov. rat/total (Rattus norvegicus [8]) did it give?
Answer: Partially active

Question: What about the ov. rat/total (Rattus norvegicus [2]) of the same compound?
Answer: Active

Question: Which ov. rat/total (Rattus norvegicus [9]) does the source give for `CC(=O)Nc1ccc(C[C@H](NC(=O)[C@H](CO)NC(=O)[C@@H](Cc2cccnc2)NC(=O)[C@@H](Cc2ccc(Cl)cc2)NC(=O)[C@@H](Cc2ccc3ccccc3c2)NC(C)=O)C(=O)N[C@H](Cc2ccc(NC(C)=O)cc2)C(=O)N[C@H](C(=O)N[C@@H](CCCCNC(C)C)C(=O)N2CCC[C@@H]2C(=O)N[C@H](C)C(N)=O)N(C)C(C)=O)cc1` here?
Answer: Partially active

Question: What about the ov. rat/total (Rattus norvegicus [10]) of the same compound?
Answer: Active

Question: How did the ov. rat/total (Rattus norvegicus [11]) turn out when `CC(=O)Nc1ccc(C[C@H](NC(=O)[C@H](CO)NC(=O)[C@@H](Cc2cccnc2)NC(=O)[C@@H](Cc2ccc(Cl)cc2)NC(=O)[C@@H](Cc2ccc3ccccc3c2)NC(C)=O)C(=O)N[C@H](Cc2ccc(NC(C)=O)cc2)C(=O)N[C@@H](NC(C)=O)C(=O)N[C@@H](CCCCNC(C)C)C(=O)N2CCC[C@@H]2C(=O)N[C@H](C)C(N)=O)cc1` was run?
Answer: Active

Question: And the ov. rat/total (Rattus norvegicus [12])?
Answer: Partially active

Question: Which results are given for `CC(=O)Nc1ccc(C[C@H](NC(=O)[C@H](CO)NC(=O)[C@@H](NC(=O)c2ccncc2)NC(=O)[C@@H](Cc2ccc(Cl)cc2)NC(=O)[C@@H](Cc2ccc3ccccc3c2)NC(C)=O)C(=O)N[C@H](Cc2ccc(NC(C)=O)cc2)C(=O)N[C@@H](CC(C)C)C(=O)N[C@@H](CCCCNC(C)C)C(=O)N2CCC[C@@H]2C(=O)N[C@H](C)C(N)=O)cc1` (single isomer, unassigned)?
Answer: ov. rat/total (Rattus norvegicus [9]): Partially active; ov. rat/total (Rattus norvegicus [11]): Active

Question: For `CC(=O)Nc1ccc(C[C@H](NC(=O)[C@H](CO)NC(=O)[C@@H](Cc2cccnc2)NC(=O)[C@@H](Cc2ccc(Cl)cc2)NC(=O)[C@H](NC(C)=O)N(C)C(=O)c2ccc3ccccc3c2)C(=O)N[C@H](Cc2ccc(NC(C)=O)cc2)C(=O)N[C@@H](CC(C)C)C(=O)N[C@@H](CCCCNC(C)C)C(=O)N2CCC[C@@H]2C(=O)N[C@H](C)C(N)=O)cc1`, which ov. rat/total (Rattus norvegicus [13]) is on record?
Answer: Active

Question: What about the ov. rat/total (Rattus norvegicus [14]) of the same compound?
Answer: inactive

Question: With `CC(=O)Nc1ccc(C[C@H](NC(=O)[C@H](CO)NC(=O)[C@@H](Cc2cccnc2)NC(=O)[C@@H](Cc2ccc(Cl)cc2)NC(=O)[C@@H](Cc2ccc3ccccc3c2)NC(C)=O)C(=O)N[C@H](C(=O)N[C@@H](CC(C)C)C(=O)N[C@@H](CCCCNC(C)C)C(=O)N2CCC[C@@H]2C(=O)N[C@H](C)C(N)=O)N(C)C(=O)c2ccc(NC(C)=O)cc2)cc1` (mixture of isomers) as the compound, how does the ov. rat/total (Rattus norvegicus [15]) read?
Answer: inactive

Question: And the ov. rat/total (Rattus norvegicus [16])?
Answer: Partially active

Question: Which ov. rat/total (Rattus norvegicus [3]) does the source give for `CC(=O)Nc1ccc(C[C@H](NC(=O)[C@H](CO)NC(=O)[C@@H](Cc2cccnc2)NC(=O)[C@@H](NC(=O)[C@@H](Cc2ccc3ccccc3c2)NC(C)=O)N(C)C(=O)c2ccc(Cl)cc2)C(=O)N[C@H](Cc2ccc(NC(C)=O)cc2)C(=O)N[C@@H](CC(C)C)C(=O)N[C@@H](CCCCNC(C)C)C(=O)N2CCC[C@@H]2C(=O)N[C@H](C)C(N)=O)cc1` (mixture of isomers) here?
Answer: inactive

Question: Which results are given for `CC(=O)Nc1ccc(C[C@H](NC(=O)[C@H](NC(=O)[C@@H](Cc2cccnc2)NC(=O)[C@@H](Cc2ccc(Cl)cc2)NC(=O)[C@@H](Cc2ccc3ccccc3c2)NC(C)=O)N(C)C=O)C(=O)N[C@H](Cc2ccc(NC(C)=O)cc2)C(=O)N[C@@H](CC(C)C)C(=O)N[C@@H](CCCCNC(C)C)C(=O)N2CCC[C@@H]2C(=O)N[C@H](C)C(N)=O)cc1` (single isomer, unassigned)?
Answer: ov. rat/total (Rattus norvegicus [17]): Active; ov. rat/total (Rattus norvegicus [18]): inactive

Question: For `CC(=O)Nc1ccc(C[C@H](NC(=O)[C@@H](NC(=O)CO)NC(=O)[C@@H](Cc2cccnc2)NC(=O)[C@@H](Cc2ccc(Cl)cc2)NC(=O)[C@@H](Cc2ccc3ccccc3c2)NC(C)=O)C(=O)N[C@H](Cc2ccc(NC(C)=O)cc2)C(=O)N[C@@H](CC(C)C)C(=O)N[C@@H](CCCCNC(C)C)C(=O)N2CCC[C@@H]2C(=O)N[C@H](C)C(N)=O)cc1` (single isomer, unassigned), which ov. rat/total (Rattus norvegicus [6]) is on record?
Answer: Partially active

Question: What does the source list for `CN[C@@H](NC(=O)[C@H]1CCCN1C(=O)[C@H](CCCCNC(C)C)NC(=O)[C@H](CC(C)C)NC(=O)[C@@H](Cc1ccc(NC(C)=O)cc1)NC(=O)[C@H](Cc1ccc(NC(C)=O)cc1)NC(=O)[C@H](CO)NC(=O)[C@@H](Cc1cccnc1)NC(=O)[C@@H](Cc1ccc(Cl)cc1)NC(=O)[C@@H](Cc1ccc2ccccc2c1)NC(C)=O)C(N)=O`?
Answer: ov. rat/total (Rattus norvegicus [7]): inactive; ov. rat/total (Rattus norvegicus [2]): Active
